Experimental data: article PMC2832307 (Journal of medicinal chemistry, 2009)
Entries after “also recorded” stand apart in the source; their conditions may differ. Read-outs that look alike come from different tables or passages of the source.

Key:
[1] = test system: hair cells of mouse organ of Corti explants; experiment: Ototoxicity: hair cell loss in cochlear explants; format: cell-based; settings: 0.2 mM, basal part
[2] = test system: PCDH15-R3X nonsense mutation; experiment: Ex vivo dual luciferase readthrough assay in COS-7 cells; format: cell-based, monkey
[3] = test system: nonsense mutation constructs (p2luc, R3381X, R3X, R245X, G542X, W1282X, Q70X, W402X); experiment: In vitro dual luciferase readthrough assay; format: biochemical; settings: for reduction in overall translation: highest concentration, Renilla luciferase activity ratio, all eight constructs
[4] = Acute intravenous toxicity; design: species or system mice; settings: male, BALB/C, mouse, in vivo
mice = settings: cited from earlier work
[5] = test system: human CFTR-G542X nonsense mutation; settings: clinical doses, transgenic CF mouse; cited from earlier work
premature stop codons = settings: cited from earlier work
[6] = test system: human cytoplasmic A site sequence; settings: cited from earlier work

For CNC(C)C1CCC(N)C(OC2C(N)CC(N)C(OC3OCC(C)(O)C(NC)C3O)C2O)O1 (stereo not shown) [Gentamicin, gentamicin], the “hair cell loss in cochlear explants” value [1] was “hair cell loss was almost complete; also recorded: cell loss is almost complete”, the maximal suppression level ([2]; COS-7 cells) was 1.86% and the “reduction in overall translation” value [3] was “approximately 50%”. It also gave an LD50 at 4 days [4] of 60 mg/kg.

For NCCC(O)C(=O)NC1CC(N)C(OC2OC(CN)C(O)C(O)C2N)C(O)C1O (stereo not shown) [N-1-AHB-neamine], the LD50 (mice; acute lethal toxicity) is given as 260 mg/kg.

In the case of NC[C@@H]1O[C@H](O[C@H]2[C@@H](O)[C@H](O[C@@H]3[C@@H](O)[C@H](N)C[C@H](N)[C@H]3O[C@H]3O[C@H](CO)[C@@H](O)[C@H](O)[C@H]3N)O[C@@H]2CO)[C@H](N)[C@@H](O)[C@@H]1O [Paromomycin, paromomycin], the “reduction in overall translation” value [3] is reported as “approximately 40%”.

In the case of NCC[C@H](O)C(=O)N[C@@H]1C[C@H](N)[C@@H](O[C@H]2O[C@H](CN)[C@@H](O)[C@H](O)[C@H]2O)[C@H](O)[C@H]1O[C@H]1O[C@H](CO)[C@@H](O)[C@H](N)[C@H]1O [amikacin], the LD50 (mice; acute intravenous toxicity in mice) is listed as 300 mg/kg, the “suppression of CFTR-G542X nonsense mutation” value [5] is listed as “highly effective suppression” and the “readthrough potency, fold lower than gentamicin” value (premature stop codons) is listed as “over 10 fold”.

For NCC[C@H](O)C(=O)N[C@@H]1C[C@H](N)[C@@H](O[C@H]2O[C@H](CN)CC[C@H]2N)[C@H](O)[C@H]1O[C@H]1O[C@H](CO)[C@@H](O)[C@H](N)[C@H]1O [arbekacin], the LD50 (mice; acute lethal toxicity) is given as 118 mg/kg.

For NC[C@H]1O[C@@H](O[C@@H]2[C@@H](O)[C@H](N)C[C@H](N)[C@H]2O[C@H]2O[C@H](CO)[C@@H](O)[C@H](O)[C@H]2N)[C@H](O)[C@@H]1O [compound 1], the “fold weaker affinity than paromomycin” value [6] is given as “about 100 fold”.

For NCC[C@H](O)C(=O)N[C@@H]1C[C@H](N)[C@@H](O[C@H]2O[C@H](CO)[C@@H](O)[C@H](O)[C@H]2N)[C@H](O[C@@H]2O[C@H](CN)[C@@H](O)[C@H]2O)[C@H]1O [compound 2, 5-O-(5-Amino-5-deoxy-β-D-ribofuranosyl)-1-N-[(S)-4-amino-2-hydroxy-butanoyl]paromamine], the “fold more effective (maximal suppression) than compound 1” value ([2]; COS-7, vs compound 1) was 1.9 fold, the “fold more effective (maximal suppression) than gentamicin” value ([2]; COS-7, vs gentamicin) was 2.8 fold and the “fold more effective (maximal suppression) than paromomycin” value ([2]; COS-7, vs paromomycin) was 3.2 fold. The “reduction in overall translation” value [3] was “approximately 50%” and the “level of readthrough (rank among four aminoglycosides)” value ([3]; in vitro, eight constructs) was “induced the highest level of readthrough”.

In the case of NC[C@@H]1CC[C@@H](N)[C@@H](O[C@H]2[C@H](O)[C@@H](O[C@H]3O[C@H](CO)[C@@H](O)[C@H](N)[C@H]3O)[C@H](N)C[C@@H]2N)O1 [dibekacin], the LD50 (mice; acute lethal toxicity) is given as 71 mg/kg.

For NC[C@H]1O[C@H](O[C@H]2[C@H](O)[C@@H](O)[C@H](N)C[C@@H]2N)[C@H](N)[C@@H](O)[C@@H]1O [neamine], the LD50 (mice; acute lethal toxicity) is given as 125 mg/kg.

In the case of NC[C@H]1O[C@H](O[C@H]2[C@H](O[C@@H]3O[C@H](CO)[C@@H](O)[C@H]3O)[C@@H](O)[C@H](N)C[C@@H]2N)[C@H](N)[C@@H](O)[C@@H]1O [ribostamycin], the LD50 (mice; acute lethal toxicity) is given as 260 mg/kg.

In the case of NC[C@H]1O[C@H](O[C@H]2[C@H](O)[C@@H](O[C@H]3O[C@H](CO)[C@@H](O)[C@H](N)[C@H]3O)[C@H](N)C[C@@H]2N)[C@H](N)C[C@@H]1O [tobramycin], the suppression activity (premature stop codons) is given as “does not have suppression activity”.

In the case of butirosin, the LD50 (mice; acute lethal toxicity) is given as 520 mg/kg.

For kanamycin A, the readthrough activity (premature stop codons) is given as “does not show measurable readthrough activity”.
